Measurements taken from patent publication US9867869B2, “Insulin derivatives for diabetes treatment” (Massachusetts Institute of Technology, priority 2012, dated 2018).

Tests used:
[1] = in vivo; cited from earlier work
[2] = 11B NMR complexing efficiency with 4NBA; type: physicochemical; details: for degree of complexation with 4NBA: pH and equivalence not stated; for Diol-PBA Complex %: 4NBA, pH 8.5, PBA:Diol 1:1, acetonitrile/PBS, room temperature
Description: (§1) Direct complexation of DP3-Insulin was carried out at an aqueous/organic 2/1 v/v solution in order to enable co-solubility with hydrophobic phenylboronic acids. Equal molar quantities of 4NBA and DP3-Insulin (0.5 mM) were dissolved in 2:1 acetonitrile:PBS and then the pH was modified to 7.5 or 8.5 by adding calculated amount of concentrated NaOH solution. The obtained complex was immediately frozen in liquid nitrogen and then freeze dried to generate a white solid. Similarly, selected diols (glucose, fructose, 4EC, 2HA, Azido-6-glactose, DP1-peptide and DP3-peptide) were formulated via the direct method. In order to validate formation of a complex 4NBA-diols, 1TBA-solids obtained by the direct method, as well as, their organic/aqueous solutions (prior to freeze drying) were analyzed with ^11B NMR and via FTIR.
(§2) 1TBA and 4NBA complexing efficiency with selected diols was measured in similar conditions but at a mixture of acetonitrile/PBS 2:1, according to the direct formulation procedure. Solid PBA-DIOL complexes were evaluated in DMSO. Data were analyzed with VNMR 6.1c software. Chemical shifts are reported in parts per million (ppm) on the δ scale.

[3] = 11B NMR complexation efficiency with 4-carboxyphenylboronic acid; type: physicochemical; details: PBS 0.1M, 37° C.
Description: ^11B NMR spectra were recorded on a VARIAN Inova-500 spectrometer operated at 160.3 MHz with gXH switchable broadband probe installed. Samples at a concentration of 10 mM were transferred to a 5 mm Norell natural quartz NMR tube (Sigma-Aldrich). Diols and 4-carboxyphenylboronic acids were co-dissolved in phosphate buffer, 0.1 M at pH 7.4 or 8.5 and tested at 37° C.
PBA is known to recognize and bind to compounds containing 1,2- and 1,3-diol residues via the formation of a boronate ester [Wang et al., Curr. Org. Chem. 2002, 6, 1285-1317]. At aqueous conditions the boronate ester is a dynamic complex. […] In order to achieve this goal, a variety of commercially available azido substituted diols were tested for their ability to complex with PBA. […] In addition, the effect of azide group on the binding with PBA is unknown. Therefore, 4 commercially available azido diols (FIGS. 16A to 16D) were selected for testing based on their diverse structures. These compounds include azido-substituted monosaccharides (A and C), disaccharide (B), oligosaccharide (C), adenosine (D) and dopamine (E). The complexation between 4-carboxyphenylboronic acid and above materials was evaluated using ^11B NMR (FIG. 16, Table 1).
The chemical shift of boron in PBA changes when it is complexed with a diol. […] Therefore, the efficiency of complexation was estimated by monitoring the ratio of these two peaks. The effect of pH on complexation and structure of diols was studied.

[4] = 11B NMR stability of 4NBA:diol complexes in phosphate buffer; details: suspended in PBS, after 24 hr, pH 7.4, 37° C.
Description: FIG. 18 is a graph showing ^11B NMR analysis for the stability of 4NBA:diol complexes at phosphate buffer, 0.1 M, pH 7.4, 37° C. […] Solids were then separated via centrifugation and freeze dried. Samples were dissolved in DMSO-d^6 at a concentration of 10 mM and were tested at room temperature.
Complexation of DP3-Insulin with PBA was studied with ^11B NMR between 4NBA, 1TBA and selected diols (Table 2).

[5] = Solubility of hydrophobic PBA as function of glucose or fructose concentration; type: physicochemical; details: PBS with 0-1000 mg/dL glucose or fructose, 6 hours, RT
Description: FIGS. 19A and 19B are graphs showing hydrophobic PBAs (1TBA, 4DBA and 4NBA) tested as a function of glucose (A) and fructose (B) concentrations in PBS. 10 mg of solid, hydrophobic PBA were dispersed in […] of phosphate buffer saline containing various concentrations of glucose and fructose; samples were mixed for 6 hours at room temperature, centrifuged, and aliquots were quantified against a calibration curve using reverse phase HPLC.
2.14. Solubility of Hydrophobic PBA as Function of Glucose or Fructose Concentration. 10 mg of Hydrophobic PBA (4DBA, 1TBA and 4NBA) were suspended in 40 ml vials containing phosphate buffer saline with various concentrations of glucose or fructose (0-1000 mg/dL); samples were mixed for 6 hours at RT. The solid suspension was centrifuged and aliquots were evaluated for PBA concentration. Analytical HPLC (Agilent 1200) was used to analyze samples. 2.15 Diol-Insulin Analogs PBA Affinity Test

[6] = traditional phenylboronic acid; cited from earlier work
[7] = 11B NMR complexing efficiency with 1TBA; type: physicochemical
Description: as §1, §2

[8] = pH 7.4, PBA:Diol 1:1, PBA 10 mM
[9] = pH 7.4, PBA:Diol 1:2, PBA 10 mM
[10] = pH 7.4, PBA:Diol 1:10, PBA 10 mM
[11] = pH 8.5, PBA:Diol 1:2, PBA 10 mM

For glargine, the “time basal level of insulin is maintained” value [1] is listed as “up to 24 hours”.

In the case of `O=C[C@H](O)[C@@H](O)[C@H](O)[C@H](O)CO` [Glucose], the “degree of complexation with 4NBA” value [2] is reported as 74%, the Complex % [3, 8] is reported as 4.0% and the Complex % [3, 9] is reported as 11.0%. It also gave a Complex % ([3]; pH 7.4, PBA:Diol 1:2, PBA 10 mM, listed as glucose) of 11%, a Complex % [3, 10] of 22.8% and a Complex % [3, 11] of 49.4%. For the same compound, the Complex % ([3]; pH 8.5, PBA:Diol 1:2, PBA 10 mM, listed as glucose) was “up to 50%” and the complexed form remaining [4] was “less than 10%”.

`[N-]=[N+]=Nc1nc2c(N)ncnc2n1[C@@H]1O[C@H](CO)[C@@H](O)[C@H]1O` [8-Azido-Adenoside] gave a Complex % [3, 9] of 47.6%, a Complex % ([3]; pH 7.4, PBA:Diol 1:2, PBA 10 mM, listed as D) of 48% and a Complex % [3, 11] of 61.6%.

With `NCCc1ccc(O)c(O)c1` [Dopamine] the Complex % [3, 9] was 38.7%, the Complex % ([3]; pH 7.4, PBA:Diol 1:2, PBA 10 mM, listed as E) was 39% and the Complex % [3, 10] was 58.1%. The Complex % [3, 11] was 100.0%.

Work on `[N-]=[N+]=NC[C@@H](O)[C@H](O)[C@H](O)[C@@H](O)C=O` [6-azido-6-deoxy-D-galactose] yielded a Complex % [3, 9] of 17.6% and a Complex % [3, 11] of 74.9%.

Maltoheptaose showed a Complex % [3, 8] of 7.5% and a Complex % ([3]; pH 8.5, PBA:Diol 1:1, PBA 10 mM) of 4.0%.

In the case of `[N-]=[N+]=N[C@H]1O[C@H](CO)[C@@H](O)[C@H](O)[C@@H]1O` [Alpha-D-Mannopyranosyl azide], the Complex % [3, 9] is reported as 4.2% and the Complex % [3, 11] is reported as 22.5%.

With `O=C(CO)[C@@H](O)[C@H](O)[C@H](O)CO` [Frucrose] the “degree of complexation with 4NBA” value [2] was roughly 100%, the Complex % [3, 8] was 27.4% and the Complex % [3, 9] was 34.9%. The Complex % ([3]; pH 7.4, PBA:Diol 1:2, PBA 10 mM, listed as Fructose) was 35%, the Complex % [3, 10] was 44.9% and the Complex % [3, 11] was 67.3%. For the same compound, the complexed form remaining [4] was “above 50%”.

With `COc1ccc(CN(C2CCCCC2)S(=O)(=O)c2ccc(B(O)O)cc2)cc1` [4NBA, 4-(N-cyclohexyl-N-(4-methoxybenzyl)sulfamoyl)phenylboronic acid] the “solubility and glucose response range” value [5] was “low solubility and response range within expected diabetic glucose levels”.

For `OB(O)c1ccccc1` [phenylboronic acid], the pKa [6] is listed as “approximately 8.9”.

With “azido-pentanoic-DOPA-GLY-DOPA-GLY-DOPA-GLY-NH2 [DP3-peptides]” the “Diol-PBA Complex %” value [2] was 91%.

`[N-]=[N+]=N[C@@H]1O[C@H](CO)[C@@H](O[C@@H]2O[C@H](CO)[C@H](O)[C@H](O)[C@H]2O)[C@H](O)[C@H]1O` [1-Azido-1-deoxy-beta-D-lactopyranoside] showed a Complex % [3, 9] of 4.0% and a Complex % [3, 11] of 8.3%.

For “Lispro: fast acting insulin where B29 lysine and B28 proline have been switched”, the duration of action [1] is listed as 4 to 6 h, the onset time [1] is listed as 5 to 15 min and the peak action [1] is listed as 30 to 90 min.

With `CCc1ccc(O)c(O)c1` [4EC] the “Diol-PBA Complex %” value ([7]; 1TBA, pH 8.5, PBA:Diol 1:1, acetonitrile/PBS, room temperature) was 75%, the complexation ratio ([7]; pH of 7.5, PBA not specified (1TBA and 4NBA named)) was 10% and the “Diol-PBA Complex %” value [2] was 87%.
